# Measured values published in ChEMBL document CHEMBL5030551, “Identification of Plasmodium falciparum falcilysin inhibitors by a virtual screen” (Bioorg Med Chem Lett, 2021).
# Tests used:
# [1] = Inhibition of recombinant Plasmodium falciparum FLN expressed in Escherichia coli BL21 using Dabcyl-HKRHSFRMRG-EDANS as substrate incubated for 10 mins by fluorecence assay
# Plasmodium falciparum = assay: Antiplasmodial activity against Plasmodium falciparum 3D7 infected in human red blood cells assessed as reduction in parasitemia measured after 70 to 80 hrs by SYBR Green dye based assay; type: functional, organism-based, RBC; details: 3D7, Erythrocyte
IC50 [1] [µM],EC50 (Plasmodium falciparum) [µM],SMILES
> 25,5.3,Cc1cccc(-c2nc3c4ccccc4nc(NCCc4ccccc4)n3n2)c1
> 25,5.1,O=C1/C(=c2/c3ccccc3n3c(=O)c4ccccc4nc23)Nc2ccccc21
> 25,> 25,O=c1cc(CN2CCc3n[nH]c(-c4cccc5ccccc45)c3C2)[nH]c(=O)[nH]1
> 25,> 25,C[C@@H](c1cc(=O)[nH]c(N[C@H]2CCc3ccccc32)n1)n1ncc2ccccc2c1=O
12,> 25,O=C(Cn1cc(-c2nnc(-c3ccccc3)o2)c2ccccc21)Nc1ccccc1
11,> 25,CC(=O)n1cc([C@H]2CC(=O)OC3=C2C(=O)c2ccccc23)c2ccccc21
12,1.7,O=C1NC(=O)C(c2ccccc2)(c2ccccc2)[C@@H]2C[C@@H]3c4[nH]c5ccccc5c4CCN3C[C@H]12
> 25,3.8,CN1CCC2(CC1)Oc1ccccc1[C@H]1CC(c3cccc4ccccc34)=NN12
> 25,3.8,Cn1nc(C(=O)NCc2ccccc2)c2c1CCN(Cc1cc3ccccc3[nH]1)C2
> 25,3,Cc1c(C(=O)NCCc2nc3ccccc3[nH]2)oc2c1ccc1ccccc12

# More lines, now with the values behind:
SMILES,IC50 [1] [µM],EC50 (Plasmodium falciparum) [µM]
O=C(Nc1nc2ccccc2[nH]1)c1cc(-c2ccccn2)nc2ccccc12,> 25,14.9
Cc1cccc(NC(=O)Cn2c(C)cc(=O)n3nc(-c4cccc(C)c4)nc23)c1,> 25,> 25
O=C1c2ccc3c(c2CC12Cc1ccc4c(c1C2=O)CCCC4)CCCC3 (stereo not given),> 25,> 25
C[C@H]1CCc2[nH]c3ccc(C(=O)NC[C@H]4COc5ccccc5O4)cc3c2C1,> 25,9.1
Cc1nn(-c2cccc(C(=O)N3CCN(C)C(=O)C3)c2)c(=O)c2ccccc12,> 25,> 25
O=C(c1ccc2c3c(cccc13)CC2)[C@H]1CCCN(Cc2cc(=O)[nH]c(=O)[nH]2)C1,> 25,> 25
Cc1cc2cc(CCNC(=O)c3ccc4ccccc4c3)c(=O)[nH]c2cc1C,> 25,5.5
O=C(NN1C(=O)c2cccc3cccc(c23)C1=O)NN1C(=O)c2cccc3cccc(c23)C1=O,> 25,> 25
Cc1ccc(-c2nc3cccnc3n2CCNC(=O)Nc2ccccc2F)cc1,> 25,> 25
O=C(c1cc(-c2cccc3cccnc23)cc(-n2cnnn2)c1)N1CCCCC1,> 25,> 25
Cc1ccc(N2C[C@@H](c3nc(-c4ccc5oc(C)nc5c4)no3)CC2=O)cc1,> 25,> 25
O=C(Nc1ccc(Cl)cc1)Nc1nnc2nc(CC(=O)c3ccc4ccccc4c3)c(=O)[nH]n12,19,12
O=c1/c(=C/c2ccc(/C=c3\sc4nc5ccccc5n4c3=O)cc2)sc2nc3ccccc3n12,> 25,> 25
O=C1Oc2ccccc2C(=O)Oc2ccccc2C(=O)Oc2ccccc2C(=O)Oc2ccccc21,> 25,> 25
Cc1nc2ccccc2c(=O)n1Cc1noc(-c2cc3ccccc3oc2=O)n1,> 25,> 25
Nc1c(C(=O)Nc2ccc3c(c2)C(=O)c2ccccc2C3=O)ccc2c1C(=O)c1ccccc1C2=O,1.76,> 25
C[C@@H]1Cc2cc(-c3cc(CC(=O)N=c4[nH]c5ccccc5[nH]4)no3)ccc2O1,> 25,> 25
Cc1ccc(-c2noc(CSc3nc(O)cc(-c4ccccc4)n3)n2)cc1C,> 25,> 25
CC1=C(C(=O)Nc2ccccc2C)[C@H](c2ccc3c(c2)OCO3)n2ncnc2N1,> 25,> 25
c1cnc2c(c1)CN(c1nc(-c3c[nH]c4ccccc34)nc3c1CNC3)CC2,21,4.4
